The values that follow come from US5585095A, “Method to enhance thrombomodulin APC generation using cationic proteins” (Regents of the University of Minnesota, priority 1993, dated 1996).

The target of data set [1] is T1, GAG+ TM (Homo sapiens, UniProt P07204).
T1 construct: encompassing the entire extracellular domain ([amino acids 1-497], which includes the serine 492 glycosylation site); host or cells: Chinese Hamster Ovary cells
Kind of data set: APC generation by recombinant GAG+ TM with thrombin and protein C (chromogenic S-2366). The format is biochemical.

Data set [2] relates to APC. Kind of data set: Detection of known amounts of APC in 15% serum by chromogenic substrate (control). The format is biochemical. As to conditions: known amounts of APC added to 15% serum, not shown. Here is the method: In addition to stimulating APC generation by soluble forms of TM in buffers, PF4 also stimulates APC generation of cell-surface TM on porcine aortic endothelial cell (PAEC) monolayers in plasmatic conditions. In these experiments, 1 cm^2 monolayers of endothelial cells were overlaid with PBS buffer containing 500 nM PC and 1 mM Ca^2+, then further supplemented with either PBS or PBS with 15% (v/v) bovine serum. To these wells were then added increasing concentrations of purified native PF4. The resultant mixture was incubated for 20 minutes after which either 2 nM (PBS) or 10 nM THR (15% serum) was added and the generation of APC allowed to proceed for 45 minutes prior to quenching with addition of AT III and EDTA. Supernatants were then centrifuged to remove cellular debris and APC generation quantified using chromogenic substrate S-2366 as described above. In the absence of added serum, there is a 2 1/2-fold increase in APC generation with an optimum at 3.3 μg/ml of PF4, but decreasing APC generation with higher concentrations. In contrast, in the presence of 15% serum, the baseline APC generation is much lower despite the presence of higher concentrations of THR. There is a PF4 dose-dependent increase in APC generation with an optimum at 33 μg/ml PF4, at which point APC generation is 10-fold higher than baseline. […]

Data set [3] has as its system GAG- TM. Kind of data set: APC generation by recombinant GAG- TM with thrombin and protein C (chromogenic S-2366). It is filed as biochemical, human. Here is the method: Human PF4 was purified from outdated platelets by THR stimulation, NH4 SO4 precipitation, heparin affinity chromatography, and Scphadex G-100 chromatography using a technique described in T. F. Deuel et al., Proc. Natl. Acad. Sci. USA, 74, 2256-2258 (1977), which is incorporated herein by reference. Dose-response studies were then performed with increasing amounts of PF4 to assay its effect upon the ability of three TM preps to generate APC from protein C. The three TM preps employed were: a) full-length rabbit TM purified from lungs (see, N. L. Esmon et al., J. Biol. Chem., 257, 859-864 (1982)); and b) two differentially glycated versions of a recombinantly produced polypeptide fragment of human TM encompassing the entire extracellular domain ([amino acids 1-497], which includes the serine 492 glycosylation site) expressed in Chinese Hamster Ovary cells, provided by Berlex Biosciences (Richmond, Calif.). See, C. B. Glaser et al., J. Clin. Invest., 90, 2565-2573 (1992). […]
The reaction was allowed to proceed for 10 minutes, then quenched by the addition of AT III (obtained from Enzyme Research Laboratories, Inc., South Bend, Ind.) and EDTA. APC was quantified spectrophotometrically with the chromogenic substrate S-2366 (obtained from Kabi Vitrum, Franklin, Ohio). […] Values obtained from these controls were then subtracted from the rates measured for wells containing monolayers. […]

Data set [4] relates to TM. Kind of data set: APC generation in the absence of added THR (control). It is filed as biochemical. The following applies: PF4 alone or PF4 together with TM. Here is the method:
(§1) The reaction was allowed to proceed for 10 minutes, then quenched by the addition of AT III (obtained from Enzyme Research Laboratories, Inc., South Bend, Ind.) and EDTA. APC was quantified spectrophotometrically with the chromogenic substrate S-2366 (obtained from Kabi Vitrum, Franklin, Ohio). The spectrophotometric analysis involved the conversion of the chromogenic substrate at […] in a 37° C. spectrophotometer cell based on the initial rate of optical density change. Negative controls of plastic wells treated in a parallel fashion except that TM was omitted. Values obtained from these controls were then subtracted from the rates measured for wells containing monolayers.
(§2) PF4 accelerates APC generation by full-length rabbit TM and GAG- TM 4-fold, and that of GAG+ TM 25-fold. GAG+ TM was also accelerated 10-fold by PF4 in the presence of 15% defibrinated plasma. […] The increase in APC was not an artifact of PF4 influencing the catalytic activity of APC towards chromogenic substrate.

For data set [5], the target named is T1, GAG+ TM. Kind of data set: APC generation by recombinant GAG+ TM with thrombin and protein C (chromogenic S-2366). The format is biochemical. The following applies: for acceleratory effect upon APC generation by thrombomodulin (GAG+ TM): conditions of Example 1, GAG+ TM, FIG. 4. Here is the method: Human PF4 was purified from outdated platelets by THR stimulation, NH4 SO4 precipitation, heparin affinity chromatography, and Scphadex G-100 chromatography using a technique described in T. F. Deuel et al., Proc. Natl. Acad. Sci. USA, 74, 2256-2258 (1977), which is incorporated herein by reference. Dose-response studies were then performed with increasing amounts of PF4 to assay its effect upon the ability of three TM preps to generate APC from protein C. The three TM preps employed were: a) full-length rabbit TM purified from lungs (see, N. L. Esmon et al., J. Biol. Chem., 257, 859-864 (1982)); and b) two differentially glycated versions of a recombinantly produced polypeptide fragment of human TM encompassing the entire extracellular domain ([amino acids 1-497], which includes the serine 492 glycosylation site) expressed in Chinese Hamster Ovary cells, provided by Berlex Biosciences (Richmond, Calif.). See, C. B. Glaser et al., J. Clin. Invest., 90, 2565-2573 (1992). These polypeptides were produced in two chromatographically separable forms: the first has an apparent molecular weight of 116 kD and contains a chondroitinase ABC-cleavable GAG moiety (henceforth referred to GAG+ TM); the second is an unglycated version of the same polypeptide with apparent molecular weight of 95 kD, henceforth referred to as GAG- TM.
as §1, with “For each type of TM, 2 nM TM and 500 nM protein C were incubated together in the presence of 1 mM (i.e., physiologic) Ca^2+ with or without PF4, and the generation of APC initiated by the addition of 2 nM THR in 50 mM Tris, 100 mM NaCl, pH 7.4 at 37° C. The reaction” for “The reaction”
The conditions used were identical to those listed in Example 1 except GAG+ TM obtained from Berlex Biosciences was used for all experiments.

Data set [6] relates to THR. Kind of data set: TM-independent activation of protein C by THR (control). As to conditions: controls, not shown. The format is biochemical. Here is the method: as §1, with “For each type of TM, 2 nM TM and 500 nM protein C were incubated together in the presence of 1 mM (i.e., physiologic) Ca^2+ with or without PF4, and the generation of APC initiated by the addition of 2 nM THR in 50 mM Tris, 100 mM NaCl, pH 7.4 at 37° C. The reaction” for “The reaction”
as §2

The test system of data set [7] is cell-surface TM on porcine aortic endothelial cell (PAEC) monolayers. Kind of data set: APC generation by porcine aortic endothelial cell monolayers. The format is cell-based. Here is the method:
In these experiments, 1 cm^2 monolayers of endothelial cells were overlaid with PBS buffer containing 500 nM PC and 1 mM Ca^2+, then further supplemented with either PBS or PBS with 15% (v/v) bovine serum. To these wells were then added increasing concentrations of purified native PF4. The resultant mixture was incubated for 20 minutes after which either 2 nM (PBS) or 10 nM THR (15% serum) was added and the generation of APC allowed to proceed for 45 minutes prior to quenching with addition of AT III and EDTA.

For data set [8], the target named is T2, full-length rabbit TM (Oryctolagus cuniculus, UniProt Q8HZ48).
T2 construct: full-length rabbit TM purified from lungs; from tissue; host or cells: rabbit lung (purified after N. L. Esmon et al. 1982)
Kind of data set: APC generation by soluble full-length rabbit TM with thrombin and protein C (chromogenic S-2366). The format is biochemical. As to conditions: 2 nM TM, 500 nM protein C, 1 mM Ca2+, 2 nM THR, 10 min, 37° C., over baseline. Here is the method:
For each type of cationic protein or modification thereof to be tested, 2 nM TM (full-length rabbit TM) and 500 nM protein C are incubated together in the presence of 1 mM (i.e., physiologic) Ca^2+ with either no cationic protein (for a baseline determination) or […] of the cationic protein. The generation of APC is initiated by the addition of 2 nM THR in 50 mM of the buffer Tris, 100 mM NaCl, pH 7.4 at 37° C. The reaction is allowed to proceed for 10 minutes, then quenched by the addition of AT III (antithrombin obtained from Enzyme Research Laboratories, Inc., South Bend, Ind.) and EDTA. […] A cationic protein that can be used in the methods and compositions of the present invention include those that show at least a two-fold increase in APC production, relative to a baseline of APC generated without the cationic protein.
Dose-response studies were then performed with increasing amounts of PF4 to assay its effect upon the ability of three TM preps to generate APC from protein C. […] See, C.
For each type of TM, 2 nM TM and 500 nM protein C were incubated together in the presence of 1 mM (i.e., physiologic) Ca^2+ with or without PF4, and the generation of APC initiated by the addition of 2 nM THR in 50 mM Tris, 100 mM NaCl, pH 7.4 at 37° C. The reaction was allowed to proceed for 10 minutes, then quenched by the addition of AT III (obtained from Enzyme Research Laboratories, Inc., South Bend, Ind.) and EDTA. […] Negative controls of plastic wells treated in a parallel fashion except that TM was omitted. Values obtained from these controls were then subtracted from the rates measured for wells containing monolayers.

For data set [9], the system named is TM. Kind of data set: APC formation with exogenous TM in combination with PF4. As to conditions: pharmacological (exogenous) TM in combination with purified naturally occurring or recombinant PF4. The text has this: The particularly preferred compositions of the present invention include those containing purified PF4, or a modification thereof, and a thrombomodulin preparation, such as purified soluble GAG+ thrombomodulin. Such compositions display particularly high levels of APC formation, and thus particularly effective levels of anticoagulation. For example, with the administration of a pharmacological form of TM, i.e., an exogenous form, in combination with purified naturally occurring or recombinant PF4, there is a 3-8 fold increase in the amount of APC formed, as compared to the administration of PF4 alone using endogenous forms of TM. This is particularly advantageous because TM and PF4, individually or together, have a higher therapeutic index than does heparin, which is currently used for anticoagulation therapy.

Data set [10] concerns purified, soluble rabbit TM. As to conditions: polyanions added to MBP-inhibited TM; cited from earlier work.
Where [11] appears, read: 2 nM TM, 500 nM protein C, 1 mM Ca2+, 2 nM THR, 10 min, 37° C., over baseline.

T1 sequence (P07204 19-515): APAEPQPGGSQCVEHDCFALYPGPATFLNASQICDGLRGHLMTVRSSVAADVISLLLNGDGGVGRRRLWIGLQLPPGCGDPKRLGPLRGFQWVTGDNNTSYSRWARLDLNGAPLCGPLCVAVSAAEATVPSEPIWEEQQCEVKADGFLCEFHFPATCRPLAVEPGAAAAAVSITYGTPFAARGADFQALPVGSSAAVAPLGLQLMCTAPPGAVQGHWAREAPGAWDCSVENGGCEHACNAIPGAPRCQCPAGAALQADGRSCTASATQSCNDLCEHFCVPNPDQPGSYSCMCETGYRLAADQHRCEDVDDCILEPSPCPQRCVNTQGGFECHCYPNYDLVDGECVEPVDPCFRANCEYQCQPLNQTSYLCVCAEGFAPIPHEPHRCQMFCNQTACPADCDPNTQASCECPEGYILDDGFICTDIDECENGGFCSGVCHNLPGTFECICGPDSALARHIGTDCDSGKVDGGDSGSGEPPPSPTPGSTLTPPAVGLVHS
T2 sequence (Q8HZ48 19-580): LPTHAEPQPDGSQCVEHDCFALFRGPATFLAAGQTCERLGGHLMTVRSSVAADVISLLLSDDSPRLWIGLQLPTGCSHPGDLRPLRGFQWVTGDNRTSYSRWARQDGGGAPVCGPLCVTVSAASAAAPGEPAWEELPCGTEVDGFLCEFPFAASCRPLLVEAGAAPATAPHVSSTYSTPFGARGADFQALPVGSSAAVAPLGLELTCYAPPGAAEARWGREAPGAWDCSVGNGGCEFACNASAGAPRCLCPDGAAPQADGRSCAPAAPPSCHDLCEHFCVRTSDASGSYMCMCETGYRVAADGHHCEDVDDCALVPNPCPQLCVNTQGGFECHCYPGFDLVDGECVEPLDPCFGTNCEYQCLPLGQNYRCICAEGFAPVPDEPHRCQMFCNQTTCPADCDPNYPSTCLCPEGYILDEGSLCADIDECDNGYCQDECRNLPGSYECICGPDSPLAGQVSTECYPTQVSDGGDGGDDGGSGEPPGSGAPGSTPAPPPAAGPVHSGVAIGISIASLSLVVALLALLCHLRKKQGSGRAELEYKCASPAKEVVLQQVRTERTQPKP

In the case of “PF4: moderately cationic and hydrophobic major protein constituent of platelet α-granules, 7.8 kD; human PF4 purified from outdated platelets”, the “APC generation in the absence of Ca2+” value in data set [1] (0 calcium, buffers with 1 mM EDTA, GAG+ and GAG- forms of TM) is “allows both the GAG+ and GAG- forms of TM to generate APC even in the absence of Ca^2+”. The “Ca2+ optimum of APC generation by GAG+ TM with PF4 added” value in [1] (PF4 added, FIG. 2) is on record as 0.5 mM. Further, the “effect on APC detection by chromogenic substrate” value in data set [2] is on record as “did not diminish or augment APC detection”. Besides, the “fold acceleration of APC generation by GAG- TM” value in data set [3] (setting [11]) is 4 fold. In data set [3] (several Ca2+ concentrations, FIG. 2), the “effect of PF4 on Ca2+ dependence of APC generation by GAG- variant” value is on record as “increases APC generation at all Ca^2+ concentrations but does not shift the overall shape of the curve”. Moreover, the “APC generation in the absence of added THR” value in [4] is “neither PF4 alone nor PF4 together with TM generated APC”. Besides, the “fold acceleration of APC generation by GAG+ TM” value in data set [5] (setting [11]) worked out at 25 fold. For the same substance, in [5] (fold-over-baseline comparison), the “acceleration of GAG+ TM by PF4 relative to full-length rabbit TM and GAG- TM (fold-over-baseline basis)” value is “more than six times as much”. For the same substance, the “fold acceleration of APC generation by GAG+ TM in plasma” value in data set [5] (in the presence of 15% defibrinated plasma) is recorded as 10 fold. Besides, in data set [6], the “effect upon TM-independent activation of protein C by THR” value was “essentially no effect”. In addition, the “PF4 concentration optimum for APC generation, PAEC, 15% serum” value in data set [7] (15% (v/v) bovine serum, 10 nM THR) turned out to be 33 µg/mL. The “fold increase in APC generation over baseline, PAEC, 15% serum” value in [7] (15% (v/v) bovine serum, 10 nM THR, at 33 μg/ml PF4) was determined as 10 fold. Also, the “PF4 concentration optimum for APC generation, PAEC, no serum” value in data set [7] (PBS, absence of added serum, 2 nM THR) came out at 3.3 µg/mL. Further, the “fold acceleration of APC generation by full-length rabbit TM” value in data set [8] is reported as 4 fold. In data set [9], the “fold increase in the amount of APC formed, exogenous TM plus PF4 versus PF4 alone using endogenous TM” value is given as 3-8 fold.
chondroitin sulfate A: the “acceleratory effect upon APC generation by thrombomodulin (GAG+ TM)” value (“acceleratory effect upon APC generation” below) in data set [5] is reported as “no such effect”.
In the case of chondroitin sulfate E, the “reversal of MBP inhibition of APC generation” value in data set [10] is given as “reversed”. Further, the “acceleratory effect upon APC generation” value in data set [5] is “no such effect”.
Consider poly-L-lysine, for which, in [5], the “acceleratory effect upon APC generation” value is recorded as “can be replicated”. Moreover, the “fold acceleration of APC generation by full-length rabbit TM” value in data set [8] was 2.5 fold.
Turning to “thrombospondin: anionic protein; major constituent of platelet α-granules”, in [5], the “acceleratory effect upon APC generation” value is “no such effect”.
In the case of heparin, the “reversal of MBP inhibition of APC generation” value in data set [10] was “reversed”. Further, the “acceleratory effect upon APC generation” value in data set [5] is “no such effect”.
For the substance protamine sulfate, the “acceleratory effect upon APC generation” value in data set [5] was “can be replicated”. Moreover, in data set [8], the “fold acceleration of APC generation by full-length rabbit TM” value was 2.5 fold.
